Common to all, as to assay: calcium imaging (FLIPR), effect on agonist-dependent hTAS2R activation
For one assay, the system named is other hTAS2 receptors. It is filed as cell-based, human. As to conditions: 100 μM test substance; cognate agonists of Table 2. The source says:
(§1) Human TAS2R cDNAs were cloned into pcDNA5/FRT (Invitrogen, San Diego, Calif.). For adequate plasma membrane targeting, receptor cDNA was fused to the aminoterminal sequence of the rat somatostatin type 3 receptor at the aminoterminus of the recombinant protein (Bufe, B., T. Hofmann, et al. (2002) Nat Genet. 32(3): 397-401). For immunological detection, the Herpes simplex Glycoprotein D epitope was supplemented at the carboxyterminus of the recombinant protein (Bufe et al., supra). Receptor constructs were transiently transfected into HEK293T cells stably expressing the chimeric G protein subunit Gα16gust44 (Ueda, T., S. Ugawa, et al. (2003) J Neurosci 23(19): 7376-80) using Lipofectamine 2000 (Invitrogen, San Diego, Calif.) in 96-well plates.
Calcium Imaging experiments were performed 24 h after transfection using a Fluorometric Imaging Plate Reader (FLIPR, Molecular Devices, Munich, Germany) as previously described (Bufe et al., supra). Taste active compounds were ordered from Sigma (Sigma-Aldrich, Taufkirchen, Germany). Absinthin, 3β hydroxy dihydro costunolide and 3β hydroxy pelenolide were kindly provided by Giovanni Appendino (Novara, Italy). […] Fluorescence signals after application of test substances were corrected for and normalized to background fluorescence (ΔF/F═(F−F0)/F0), and baseline noise was subtracted. […]

In the next assay the target is T1, hTAS2R46 (Homo sapiens, UniProt P59540).
T1 construct: expressed in transfected cells; host or cells: HEK293T cells stably expressing chimeric Gα16gust44, transient transfection
T1 sequence (P59540 1-309): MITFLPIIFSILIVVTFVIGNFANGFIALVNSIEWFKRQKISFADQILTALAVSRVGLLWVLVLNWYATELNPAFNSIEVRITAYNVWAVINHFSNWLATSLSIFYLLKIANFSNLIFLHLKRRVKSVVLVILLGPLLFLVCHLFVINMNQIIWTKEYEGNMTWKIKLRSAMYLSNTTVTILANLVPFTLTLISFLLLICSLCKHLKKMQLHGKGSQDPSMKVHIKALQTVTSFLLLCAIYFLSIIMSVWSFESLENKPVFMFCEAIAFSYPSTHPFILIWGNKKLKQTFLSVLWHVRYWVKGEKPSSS
It is filed as cell-based. As to conditions: for agonist-dependent response of hTAS2R46-expressing cells on coapplication: 100 μM test substance, agonist picrotoxinin 300 μM (EC90), agonist alone = 100%.
Excerpt: as §1
(§2) Calcium Imaging experiments were performed 24 h after transfection using a Fluorometric Imaging Plate Reader (FLIPR, Molecular Devices, Munich, Germany) as previously described (Bufe et al., supra). Taste active compounds were ordered from Sigma (Sigma-Aldrich, Taufkirchen, Germany). Absinthin, 3β hydroxy dihydro costunolide and 3β hydroxy pelenolide were kindly provided by Giovanni Appendino (Novara, Italy). Test substances were directly dissolved in C1 buffer (130 mM NaCl, 10 mM Na-Hepes, 10 mM Glucose, 5 mM KCl, 2 mM CaCl2, pH 7.4) or in DMSO, respectively. DMSO stocks were further diluted in C1 buffer not exceeding a final DMSO concentration of 1% on the cells. For the investigation of antagonistic effects, test substances were premixed. Agonists were applied at concentrations corresponding to EC90, except where indicated otherwise (Table 2). Data were collected from 3 independent experiments performed in quadruplicates and processed with SigmaPlot (SPSS, Chicago, Ill.). Fluorescence signals after application of test substances were corrected for and normalized to background fluorescence (ΔF/F═(F−F0)/F0), and baseline noise was subtracted. Calculation of dose-response curves was done by nonlinear regression using the function f(y)=((a−d)/(1+(x/EC50)^nH)+d).
(§3) To test 3β hydroxy dihydro costunolide and 3β hydroxy pelenolide for antagonistic or enhancing effects on hTAS2R activation, transfected cells were stimulated with cognate agonist bitter substances at EC90 concentrations (Table 2) without 3β hydroxy dihydro costunolide and 3β hydroxy pelenolide. The cellular responses after application of the agonist alone were set to 100%, responses obtained after coapplication of agonists and 100 μM 3β hydroxy dihydro costunolide or 100 μM 3β hydroxy pelenolide are shown relative to this value (FIG. 4).
Next we determined concentrations of half-maximal inhibition of TAS2R46. FIG. 5 illustrates the concentration-inhibition curves of TAS2R46 activated by picrotoxinin in the presence of various concentrations of 3β hydroxy dihydro costunolide or 3β hydroxy pelenolide. […] In agreement with the data described above the costunolide analog appears to be more potently inhibiting TAS2R46 than the pelenolide analog. […] As expected 3β hydroxy pelenolide has to be employed at ˜6 fold higher concentrations than 3β hydroxy dihydro costunolide to achieve 50% receptor inhibition.
Next, we established concentration-response curves for strychnine at TAS2R46 in the presence of various concentrations of 3β hydroxy dihydro costunolide.
Finally, the impact of chemical modifications on the antagonistic properties of 3β hydroxy dihydro costunolide on hTAS2R46-expressing cells was studied. Derivatives of 3β hydroxy dihydro costunolide with site-directed modifications at C3 and C11 were generated (FIG. 7A) These derivatives were tested for activation or inhibition of hTAS2R46-expressing cells in the absence or presence of the agonist strychnine (3 μM) and half-maximum effective concentrations (EC50) or half-maximal inhibitory concentrations were calculated (FIG. 7B).

The next assay has as its target T2, hTAS2R47 (Homo sapiens, UniProt P59541).
T2 construct: expressed in transfected cells; host or cells: HEK293T cells stably expressing chimeric Gα16gust44, transient transfection
T2 sequence (P59541 1-319): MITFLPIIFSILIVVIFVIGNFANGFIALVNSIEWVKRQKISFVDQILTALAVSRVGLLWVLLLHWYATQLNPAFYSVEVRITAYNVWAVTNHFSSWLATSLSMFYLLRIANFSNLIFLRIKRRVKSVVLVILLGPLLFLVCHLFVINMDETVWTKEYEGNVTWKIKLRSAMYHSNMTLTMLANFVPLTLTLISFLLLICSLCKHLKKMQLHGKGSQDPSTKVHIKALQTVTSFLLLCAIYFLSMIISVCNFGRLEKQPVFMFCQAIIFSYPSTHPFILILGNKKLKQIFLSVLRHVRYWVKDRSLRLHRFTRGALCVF
The format is cell-based. As to conditions: 100 μM test substance; agonist brucine 100 μM (EC90); agonist alone = 100%.
Excerpt: as §1, §2, §3

A further assay concerns the target T3, hTAS2R43 (Homo sapiens, UniProt P59537, H212R/W35S).
T3 construct: expressed in transfected cells; host or cells: HEK293T cells stably expressing chimeric Gα16gust44, transient transfection
T3 sequence (P59537 1-309 W35S/H212R): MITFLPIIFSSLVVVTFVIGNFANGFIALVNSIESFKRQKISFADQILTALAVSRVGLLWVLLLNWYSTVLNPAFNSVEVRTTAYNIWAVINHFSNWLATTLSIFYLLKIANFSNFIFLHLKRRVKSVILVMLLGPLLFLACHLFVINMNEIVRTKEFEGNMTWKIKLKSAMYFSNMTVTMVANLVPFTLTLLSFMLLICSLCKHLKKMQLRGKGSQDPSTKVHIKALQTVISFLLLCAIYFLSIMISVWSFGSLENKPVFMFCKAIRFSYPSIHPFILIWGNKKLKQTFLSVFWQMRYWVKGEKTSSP
The format is cell-based. As to conditions: 100 μM test substance; agonist aristolochic acids 0.3 μM (EC90); agonist alone = 100%.
Excerpt: as §1, §2, §3

A further assay deals with T4, hTAS2R40 (Homo sapiens, UniProt P59535).
T4 construct: expressed in transfected cells; host or cells: HEK293T cells stably expressing chimeric Gα16gust44, transient transfection
T4 sequence (P59535 whole entry): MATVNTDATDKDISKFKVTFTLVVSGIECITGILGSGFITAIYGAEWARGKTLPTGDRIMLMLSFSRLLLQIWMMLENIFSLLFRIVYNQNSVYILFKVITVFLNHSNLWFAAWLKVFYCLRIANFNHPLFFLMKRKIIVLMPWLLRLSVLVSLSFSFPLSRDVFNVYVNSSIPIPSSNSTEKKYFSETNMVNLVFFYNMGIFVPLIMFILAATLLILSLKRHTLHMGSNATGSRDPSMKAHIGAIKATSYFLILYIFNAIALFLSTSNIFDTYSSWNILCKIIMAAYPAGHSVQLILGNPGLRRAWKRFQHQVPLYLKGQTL
It is filed as cell-based. As to conditions: 100 μM test substance; agonist cohumulone 0.3 μM (EC90); agonist alone = 100%.
Excerpt: as §1, §2, §3

Setting [1] is: agonist denatonium benzoate 300 μM.

With `C/C1=C\C[C@H](O)/C(C)=C/[C@H]2OC(=O)[C@@H](C)C2CC1` (stereo partly drawn) [3β hydroxy dihydro costunolide], the “agonist activation of cells expressing any of the other hTAS2Rs on coapplication” value with other hTAS2 receptors is “did not alter”. Also, on hTAS2R46 (0, 10, 30, 100 μM inhibitor), the “strychnine response amplitude at TAS2R46 with increasing inhibitor concentrations” value is recorded as “largely unaffected”. In addition, the “change of the strychnine EC50 value at hTAS2R46 on coapplication” value on hTAS2R46 (100 μM inhibitor, P<0.05, one-way ANOVA) was “significant increase”. In addition, the “agonist-dependent response of hTAS2R46-expressing cells on coapplication” value at hTAS2R46 was “complete block”. For the same compound, the IC50 at hTAS2R46 (agonist absinthin 100 μM) came out at 14.1 ± 1.35 µM; at hTAS2R46 (agonist andrographolide 30 μM), 4.93 ± 0.54 µM; at hTAS2R46 (setting [1]), 6.78 ± 2.33 µM; at hTAS2R46 (agonist picrotoxinin 300 μM) it was 4.81 ± 1.43 µM; at hTAS2R46 (agonist strychnine 3 μM) it was 15.3 ± 5.85 µM. The “action on hTAS2R46-expressing cells (inhibition)” value at hTAS2R46 (presence of agonist strychnine 3 μM) is given as “antagonists”. The “mode of action of the inhibitor at TAS2R46” value on hTAS2R46 (strychnine concentration-response curves with 0, 10, 30, 100 μM inhibitor) is “competitive”. Also, the “agonist-dependent response of hTAS2R47-expressing cells on coapplication” value on hTAS2R47 is on record as “complete block”. On hTAS2R43, the “agonist-dependent response of hTAS2R43-expressing cells on coapplication” value is listed as “only moderately reduced”. Besides, the “agonist-dependent response of hTAS2R40-expressing cells on coapplication” value on hTAS2R40 is reported as “only moderately reduced”.

`C/C1=C\C[C@H](O)[C@@H](C)C[C@H]2OC(=O)[C@@H](C)[C@@H]2CC1` [3β hydroxy pelenolide]: the “agonist activation of cells expressing any of the other hTAS2Rs on coapplication” value in the assay on other hTAS2 receptors is “not affected”. For the same compound, the “agonist-dependent response of hTAS2R46-expressing cells on coapplication” value at hTAS2R46 is reported as “moderately attenuating effect”. Also, the “fold higher concentration than 3β hydroxy dihydro costunolide to achieve 50% receptor inhibition” value on hTAS2R46 (TAS2R46) is reported as ~6 fold. Also, the IC50 at hTAS2R46 (agonist absinthin 100 μM) came to 57.8 ± 24.9 µM; on hTAS2R46 (agonist andrographolide 30 μM), 44.5 ± 34.5 µM; on hTAS2R46 (setting [1]), 51.4 ± 28.8 µM; at hTAS2R46 (agonist picrotoxinin 300 μM), 22.9 ± 3.4 µM; at hTAS2R46 (agonist strychnine 3 μM), 84.9 ± 50.2 µM. Besides, the “agonist-dependent response of hTAS2R47-expressing cells on coapplication” value at hTAS2R47 is on record as “completely inhibited”. For the same compound, the “agonist-dependent response of hTAS2R43-expressing cells on coapplication” value on hTAS2R43 is “completely inhibited”. In addition, the “agonist-dependent response of hTAS2R40-expressing cells on coapplication” value on hTAS2R40 is listed as “moderately attenuating effect”.

Broadly, the IC50 is the concentration at which inhibition is half-maximal.
